Test results as given in PubChem BioAssay (NCI).
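Growth conditions: 96-well plates. Treatment: test compound, 48 hours, 5 concentrations. Analysis: linear interpolation between bracketing concentrations; unreached endpoints set to highest concentration. TGI: total growth inhibition.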

Tests used:
Assay in all cases: inhibition of tumour cell growth, NCI panel, 48 h
HCC-2998 colon = test system: HCC-2998 colon
ACHN renal = test system: ACHN renal
HT29 colon = test system: HT29 colon
NCI-H460 lung = test system: NCI-H460 lung
SF-268 CNS = test system: SF-268 CNS
HOP-18 NSCLC = test system: HOP-18 NSCLC
NCI-H226 lung = test system: NCI-H226 lung
OVCAR-8 ovarian = test system: OVCAR-8 ovarian
OVCAR-3 ovarian = test system: OVCAR-3 ovarian
DMS 273 small cell lung = test system: DMS 273 small cell lung
SF-295 CNS = test system: SF-295 CNS
UACC-62 melanoma = test system: UACC-62 melanoma
LXFL 529 NSCLC = test system: LXFL 529 NSCLC
KM12 colon = test system: KM12 colon
RXF 393 renal = test system: RXF 393 renal
SNB-78 CNS = test system: SNB-78 CNS
KM20L2 colon = test system: KM20L2 colon
SW-620 colon = test system: SW-620 colon
HL-60(TB) leukemia = test system: HL-60(TB) leukemia
CAKI-1 renal = test system: CAKI-1 renal
TK-10 renal = test system: TK-10 renal
DMS 114 small cell lung = test system: DMS 114 small cell lung
SK-MEL-28 melanoma = test system: SK-MEL-28 melanoma
RXF-631 renal = test system: RXF-631 renal
MOLT-4 leukemia = test system: MOLT-4 leukemia
M19-MEL melanoma = test system: M19-MEL melanoma
SN12C renal = test system: SN12C renal
HCT-116 colon = test system: HCT-116 colon
UO-31 renal = test system: UO-31 renal
RPMI-8226 leukemia = test system: RPMI-8226 leukemia
A549 NSCLC = test system: A549 NSCLC
MALME-3M melanoma = test system: MALME-3M melanoma
LOX IMVI melanoma = test system: LOX IMVI melanoma
U251 CNS = test system: U251 CNS
IGROV1 ovarian = test system: IGROV1 ovarian
OVCAR-4 ovarian = test system: OVCAR-4 ovarian
OVCAR-5 ovarian = test system: OVCAR-5 ovarian
786-0 renal = test system: 786-0 renal
CCRF-CEM leukemia = test system: CCRF-CEM leukemia
SK-MEL-5 melanoma = test system: SK-MEL-5 melanoma
M14 melanoma = test system: M14 melanoma
K-562 leukemia = test system: K-562 leukemia
A498 renal = test system: A498 renal
SK-MEL-2 melanoma = test system: SK-MEL-2 melanoma
SK-OV-3 ovarian = test system: SK-OV-3 ovarian
XF 498 CNS = test system: XF 498 CNS
SNB-19 CNS = test system: SNB-19 CNS
DLD-1 colon = test system: DLD-1 colon
SNB-75 CNS = test system: SNB-75 CNS
SF-539 CNS = test system: SF-539 CNS
NCI-H23 lung = test system: NCI-H23 lung
EKVX NSCLC = test system: EKVX NSCLC
COLO 205 colon = test system: COLO 205 colon
HCT-15 colon = test system: HCT-15 colon
UACC-257 melanoma = test system: UACC-257 melanoma
HOP-92 NSCLC = test system: HOP-92 NSCLC
NCI-H522 lung = test system: NCI-H522 lung
HOP-62 NSCLC = test system: HOP-62 NSCLC

How did the TGI (HCC-2998 colon) turn out when O=C1C2C(C(=O)N1c1ccccc1)C1(Br)c3ccccc3C2(Br)C2C(=O)N(c3ccccc3)C(=O)C21 (stereo unspecified) was run?
Its TGI is greater than 31.6 µM.

What about the TGI (ACHN renal) of the same compound?
Its TGI is greater than 31.6 µM.

What about the TGI (HT29 colon) of the same compound?
Its TGI is greater than 31.6 µM.

What about the TGI (NCI-H460 lung) of the same compound?
The TGI was greater than 31.6 µM.

What about the TGI (SF-268 CNS) of the same compound?
Its TGI is greater than 31.6 µM.

And the TGI (HOP-18 NSCLC)?
Its TGI is greater than 31.6 µM.

What about the TGI (NCI-H226 lung) of the same compound?
Its TGI is greater than 31.6 µM.

What about the TGI (OVCAR-8 ovarian) of the same compound?
The TGI was greater than 100 µM.

What about the TGI (OVCAR-3 ovarian) of the same compound?
The TGI was greater than 31.6 µM.

And the TGI (DMS 273 small cell lung)?
The TGI was greater than 31.6 µM.

What about the TGI (SF-295 CNS) of the same compound?
Its TGI is greater than 100 µM.

What about the TGI (UACC-62 melanoma) of the same compound?
The TGI was greater than 31.6 µM.

What about the TGI (LXFL 529 NSCLC) of the same compound?
The TGI was greater than 31.6 µM.

What about the TGI (KM12 colon) of the same compound?
Its TGI is greater than 31.6 µM.

And the TGI (RXF 393 renal)?
Its TGI is 27.1 µM.

And the TGI (SNB-78 CNS)?
Its TGI is greater than 31.6 µM.

What about the TGI (KM20L2 colon) of the same compound?
The TGI was greater than 31.6 µM.

What about the TGI (SW-620 colon) of the same compound?
The TGI was greater than 31.6 µM.

And the TGI (HL-60(TB) leukemia)?
Its TGI is greater than 31.6 µM.

And the TGI (CAKI-1 renal)?
The TGI was greater than 100 µM.

What about the TGI (TK-10 renal) of the same compound?
Its TGI is greater than 31.6 µM.

What about the TGI (DMS 114 small cell lung) of the same compound?
The TGI was greater than 31.6 µM.

And the TGI (SK-MEL-28 melanoma)?
The TGI was greater than 31.6 µM.

What about the TGI (RXF-631 renal) of the same compound?
The TGI was greater than 100 µM.

And the TGI (MOLT-4 leukemia)?
Its TGI is greater than 31.6 µM.

And the TGI (M19-MEL melanoma)?
The TGI was greater than 31.6 µM.

And the TGI (SN12C renal)?
Its TGI is greater than 31.6 µM.

And the TGI (HCT-116 colon)?
Its TGI is greater than 31.6 µM.

What about the TGI (UO-31 renal) of the same compound?
The TGI was greater than 31.6 µM.

And the TGI (RPMI-8226 leukemia)?
The TGI was greater than 31.6 µM.

What about the TGI (A549 NSCLC) of the same compound?
The TGI was greater than 31.6 µM.

And the TGI (MALME-3M melanoma)?
The TGI was greater than 31.6 µM.

What about the TGI (LOX IMVI melanoma) of the same compound?
The TGI was greater than 31.6 µM.

What about the TGI (U251 CNS) of the same compound?
The TGI was greater than 31.6 µM.

What about the TGI (IGROV1 ovarian) of the same compound?
The TGI was greater than 31.6 µM.

What about the TGI (OVCAR-4 ovarian) of the same compound?
The TGI was greater than 100 µM.

What about the TGI (OVCAR-5 ovarian) of the same compound?
Its TGI is greater than 31.6 µM.

What about the TGI (786-0 renal) of the same compound?
The TGI was greater than 31.6 µM.

And the TGI (CCRF-CEM leukemia)?
The TGI was greater than 31.6 µM.

What about the TGI (SK-MEL-5 melanoma) of the same compound?
The TGI was greater than 31.6 µM.

And the TGI (M14 melanoma)?
The TGI was greater than 31.6 µM.

What about the TGI (K-562 leukemia) of the same compound?
Its TGI is greater than 31.6 µM.

What about the TGI (A498 renal) of the same compound?
Its TGI is greater than 100 µM.

What about the TGI (SK-MEL-2 melanoma) of the same compound?
The TGI was greater than 31.6 µM.

And the TGI (SK-OV-3 ovarian)?
The TGI was greater than 100 µM.

And the TGI (XF 498 CNS)?
The TGI was greater than 100 µM.

What about the TGI (SNB-19 CNS) of the same compound?
Its TGI is greater than 31.6 µM.

What about the TGI (DLD-1 colon) of the same compound?
The TGI was greater than 31.6 µM.

And the TGI (SNB-75 CNS)?
Its TGI is greater than 31.6 µM.

What about the TGI (SF-539 CNS) of the same compound?
The TGI was greater than 31.6 µM.

And the TGI (NCI-H23 lung)?
The TGI was greater than 31.6 µM.

What about the TGI (EKVX NSCLC) of the same compound?
The TGI was greater than 31.6 µM.

And the TGI (COLO 205 colon)?
The TGI was greater than 31.6 µM.

And the TGI (HCT-15 colon)?
Its TGI is greater than 31.6 µM.

What about the TGI (UACC-257 melanoma) of the same compound?
Its TGI is greater than 31.6 µM.

Which results are given for Nc1ccc2c(c1)C(=O)N(OS(=O)(=O)c1ccccc1)C2=O?
TGI (HCC-2998 colon): > 100 µM; TGI (ACHN renal): > 100 µM; TGI (HT29 colon): > 100 µM; TGI (NCI-H460 lung): > 100 µM; TGI (SF-268 CNS): > 100 µM; TGI (HOP-18 NSCLC): > 100 µM; TGI (NCI-H226 lung): > 100 µM; TGI (OVCAR-8 ovarian): > 100 µM; TGI (OVCAR-3 ovarian): > 100 µM; TGI (DMS 273 small cell lung): > 100 µM; TGI (SF-295 CNS): > 100 µM; TGI (UACC-62 melanoma): > 100 µM; TGI (LXFL 529 NSCLC): > 100 µM; TGI (KM12 colon): > 100 µM; TGI (HOP-92 NSCLC): > 100 µM; TGI (RXF 393 renal): > 100 µM; TGI (SNB-78 CNS): > 100 µM; TGI (KM20L2 colon): > 100 µM; TGI (SW-620 colon): > 100 µM; TGI (HL-60(TB) leukemia): > 100 µM; TGI (CAKI-1 renal): > 100 µM; TGI (TK-10 renal): > 100 µM; TGI (DMS 114 small cell lung): > 100 µM; TGI (NCI-H522 lung): 60.7 µM; TGI (SK-MEL-28 melanoma): > 100 µM; TGI (RXF-631 renal): > 100 µM; TGI (M19-MEL melanoma): > 100 µM; TGI (SN12C renal): > 100 µM; TGI (HCT-116 colon): > 100 µM; TGI (UO-31 renal): > 100 µM; TGI (A549 NSCLC): > 100 µM; TGI (MALME-3M melanoma): > 100 µM; TGI (LOX IMVI melanoma): > 100 µM; TGI (U251 CNS): > 100 µM; TGI (IGROV1 ovarian): > 100 µM; TGI (OVCAR-4 ovarian): > 100 µM; TGI (OVCAR-5 ovarian): > 100 µM; TGI (786-0 renal): > 100 µM; TGI (CCRF-CEM leukemia): > 100 µM; TGI (SK-MEL-5 melanoma): > 100 µM; TGI (M14 melanoma): > 100 µM; TGI (K-562 leukemia): > 100 µM; TGI (A498 renal): > 100 µM; TGI (SK-MEL-2 melanoma): > 100 µM; TGI (SK-OV-3 ovarian): > 100 µM; TGI (XF 498 CNS): > 100 µM; TGI (HOP-62 NSCLC): > 100 µM; TGI (SNB-19 CNS): > 100 µM; TGI (DLD-1 colon): > 100 µM; TGI (SNB-75 CNS): > 100 µM; TGI (SF-539 CNS): > 100 µM; TGI (NCI-H23 lung): > 100 µM; TGI (EKVX NSCLC): > 100 µM; TGI (COLO 205 colon): > 100 µM; TGI (HCT-15 colon): > 100 µM; TGI (UACC-257 melanoma): > 100 µM
